These are literature values, as cited in patent publication US5972639A, “Fluorescence-based assays for measuring cell proliferation” (Irori, priority 1997, dated 1999).

As usually defined, the Km is the concentration of substrate that gives half-maximal velocity.

Conditions in all cases: cited from earlier work
For one series, the system named is Alkaline phosphatase.
The subject of the next series is Acid phosphatase.
The target of series [1] is Alkaline phosphatase (E. coli) (Escherichia coli, UniProt P00634).
Alkaline phosphatase (E. coli), sequence (P00634 22-471): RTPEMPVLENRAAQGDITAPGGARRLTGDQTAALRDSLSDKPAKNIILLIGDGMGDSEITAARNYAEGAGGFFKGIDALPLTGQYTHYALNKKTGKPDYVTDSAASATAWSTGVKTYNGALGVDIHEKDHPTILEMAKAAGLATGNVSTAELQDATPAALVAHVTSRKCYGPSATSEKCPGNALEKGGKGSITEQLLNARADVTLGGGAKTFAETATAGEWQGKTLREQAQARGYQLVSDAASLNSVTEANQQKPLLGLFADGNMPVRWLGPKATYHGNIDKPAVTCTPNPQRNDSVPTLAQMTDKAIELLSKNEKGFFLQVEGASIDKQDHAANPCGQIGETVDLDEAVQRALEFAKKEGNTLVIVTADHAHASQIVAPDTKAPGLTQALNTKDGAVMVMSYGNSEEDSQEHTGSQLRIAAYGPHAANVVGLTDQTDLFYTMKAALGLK

For `CC(=O)NCCSP(=O)(O)O` [N-Acetylcysteamine S-phosphate], the “Alkaline phosphatase, products identified” value in the series on Alkaline phosphatase is listed as “N-Acetylcysteamine”. Also, the “Acid phosphatase, products identified” value in the series with Acid phosphatase is “No cleavage”.
On to `COC(=O)CCSP(=O)(O)O` [S-[2-(Methoxy-carboxyl)ehtyl] phosphorothioate], for which, in the series with Alkaline phosphatase, the “Alkaline phosphatase, products identified” value is on record as “d, ^32 Pi”. The “Acid phosphatase, products identified” value in the series with Acid phosphatase is “No cleavage”.
As to `O=[N+]([O-])c1ccc(OP(=O)(O)O)cc1` [p-NPP, p-nitrophenyl phosphate], in series [1], the Km was 94 µM.
